Results: ChEMBL document CHEMBL1201862, “PubChem BioAssay data set” (2004)
Active and inactive are the calls of the source.

How the values were obtained:
[1] = target: T1, Carboxy-terminal domain RNA polymerase II polypeptide A small phosphatase 1 (Homo sapiens, UniProt Q9GZU7); test: inhibitors of CTDSP1, concentration-response testing, biochemical assay, absorbance-based, actives from ultra-high-throughput screening (AID 540297); type: functional
T1 sequence (Q9GZU7 whole entry): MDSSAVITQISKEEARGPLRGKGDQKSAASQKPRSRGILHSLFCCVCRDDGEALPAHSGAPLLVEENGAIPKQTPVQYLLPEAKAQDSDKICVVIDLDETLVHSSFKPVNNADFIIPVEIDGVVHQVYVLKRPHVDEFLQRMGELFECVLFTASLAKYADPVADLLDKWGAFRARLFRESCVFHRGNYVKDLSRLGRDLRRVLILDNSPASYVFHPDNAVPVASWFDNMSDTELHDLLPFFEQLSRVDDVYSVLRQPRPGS

[2] = target: T2, Apoptotic protease-activating factor 1 (Homo sapiens, UniProt O14727); test: activation of Apaf-1 mediated apoptosis – fluorescent, uHTS hits, dose response (AID 588554); type: functional
T2 sequence (O14727 whole entry): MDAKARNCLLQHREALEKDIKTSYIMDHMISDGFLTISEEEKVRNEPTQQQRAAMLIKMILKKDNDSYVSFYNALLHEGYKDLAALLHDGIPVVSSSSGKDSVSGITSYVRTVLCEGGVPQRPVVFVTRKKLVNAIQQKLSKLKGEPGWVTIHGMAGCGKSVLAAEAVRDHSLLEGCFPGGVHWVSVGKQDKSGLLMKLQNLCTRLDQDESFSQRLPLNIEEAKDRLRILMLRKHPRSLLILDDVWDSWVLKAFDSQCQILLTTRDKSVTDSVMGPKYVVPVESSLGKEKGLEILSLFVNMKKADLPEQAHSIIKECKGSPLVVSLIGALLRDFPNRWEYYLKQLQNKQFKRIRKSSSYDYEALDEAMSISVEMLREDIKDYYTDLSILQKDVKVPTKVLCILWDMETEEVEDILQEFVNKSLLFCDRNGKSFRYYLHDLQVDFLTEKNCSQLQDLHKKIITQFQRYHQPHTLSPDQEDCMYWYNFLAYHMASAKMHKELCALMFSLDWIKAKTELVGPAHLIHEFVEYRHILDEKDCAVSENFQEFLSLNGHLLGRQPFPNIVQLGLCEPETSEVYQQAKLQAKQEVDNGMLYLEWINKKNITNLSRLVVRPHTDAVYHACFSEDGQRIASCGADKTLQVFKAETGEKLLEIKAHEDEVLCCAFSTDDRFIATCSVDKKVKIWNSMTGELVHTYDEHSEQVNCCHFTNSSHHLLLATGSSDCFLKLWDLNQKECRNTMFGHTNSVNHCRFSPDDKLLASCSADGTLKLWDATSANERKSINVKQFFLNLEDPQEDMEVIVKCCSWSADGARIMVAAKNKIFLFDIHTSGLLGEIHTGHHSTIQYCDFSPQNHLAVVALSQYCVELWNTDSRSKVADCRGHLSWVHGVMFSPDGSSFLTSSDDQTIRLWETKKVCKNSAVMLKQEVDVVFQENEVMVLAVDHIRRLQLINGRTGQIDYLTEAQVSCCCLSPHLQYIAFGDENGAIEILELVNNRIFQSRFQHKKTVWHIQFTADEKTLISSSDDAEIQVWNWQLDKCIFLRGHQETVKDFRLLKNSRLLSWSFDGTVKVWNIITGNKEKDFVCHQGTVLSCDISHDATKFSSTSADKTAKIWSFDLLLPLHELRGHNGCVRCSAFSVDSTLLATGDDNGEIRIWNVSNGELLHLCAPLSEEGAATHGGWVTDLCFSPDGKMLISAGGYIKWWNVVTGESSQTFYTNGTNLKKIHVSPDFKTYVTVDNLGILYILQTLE

[3] = target: DNA dC->dU-editing enzyme APOBEC-3G (Homo sapiens, UniProt Q9HC16); test: Dose Response confirmation of small molecule APOBEC3G DNA Deaminase Inhibitors via a fluorescence-based single-stranded DNA deaminase assay. [Related pubchem assays (depositor defined):AID493012, AID493028]; type: functional
[4] = target: DNA dC->dU-editing enzyme APOBEC-3A (Homo sapiens, UniProt P31941); test: APOBEC3A DNA deaminase inhibitors, dose response, biochemical (AID 504722); type: functional
[5] = target: T3, Small ubiquitin-related modifier 1 (Homo sapiens, UniProt P63165); test: inhibitors of SUMO1 partner interactions, dose response, biochemical, FRET (AID 624383); type: functional; settings: read-out: IC50_Mean
[6] = target: DNA (cytosine-5)-methyltransferase 1 (Homo sapiens, UniProt P26358); test: DNMT1 methyltransferase inhibitors, confirmation, biochemical, fluorescent molecular beacon (AID 602386); type: functional
[7] = target: T3, Small ubiquitin-related modifier 1; test: inhibitors of SUMO1 peptide binding, dose response, biochemical, fluorescence polarization, uHTS hits (AID 624382); type: functional; settings: read-out: IC50_Mean
[8] = cytotoxicity in HMLE control line with eGFP shRNA, dose response, counter-screen for HMLE_sh_ECad selective toxicity project, cell-based, HMLE_sh_eGFP, luminescence (AID 463074); type: functional, Homo sapiens;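 also: HMLE human mammary epithelial cells expressing control shRNA against eGFP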
cells [9] = type: functional, cell-based
[10] = Luminescence Cell-Based Dose Confirmation HTS to Identify Activators of 5'UTR Stem-Loop Driven Alpha-Synuclein mRNA Translation in H4 Neuroglioblastoma Cells. [Related pubchem assays: 1829 (Project Summary), 1814 (Primary HTS)]; type: functional
[11] = Luminescence Cell-Based Dose Retest to Confirm Inhibitors of Cancer Stem Cells. [Related pubchem assays (depositor defined):AID2717, AID2721]; type: functional; settings: Homo sapiens
cells [12] = type: functional, cell-based; remark: listed apart in the source
H4 = test: Luminescence Cell-Based Dose Response HTS to Identify Activators of 5'UTR Stem-Loop Driven Prion Protein mRNA Translation in H4 Neuroglioblastoma Cells. [Related pubchem assays: 1829 (Project Summary), 1814 (Primary HTS)]; type: functional; settings: Homo sapiens
[13] = Luminescence Cell-Based Dose Response HTS to Identify Activators of Luciferase Translation or Activity in H4 […] Cells. [Related pubchem assays: 1829 (Project Summary), 1814 (Primary HTS)]; type: functional
[14] = target: Type-1 angiotensin II receptor (Homo sapiens, UniProt P30556); test: AT1 receptor antagonists, dose response, selectivity assay for APJ receptor antagonist project, cell-based, uHTS hits (AID 463214); type: functional;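 also: antagonist potency against angiotensin II stimulated AT1 response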
Beta-galactosidase = Beta-galactosidase (Escherichia coli, UniProt Q8VNN2); test: PubChem AID 485352; type: functional
Chain of Beta-galactosidase (Q8VNN2 whole entry): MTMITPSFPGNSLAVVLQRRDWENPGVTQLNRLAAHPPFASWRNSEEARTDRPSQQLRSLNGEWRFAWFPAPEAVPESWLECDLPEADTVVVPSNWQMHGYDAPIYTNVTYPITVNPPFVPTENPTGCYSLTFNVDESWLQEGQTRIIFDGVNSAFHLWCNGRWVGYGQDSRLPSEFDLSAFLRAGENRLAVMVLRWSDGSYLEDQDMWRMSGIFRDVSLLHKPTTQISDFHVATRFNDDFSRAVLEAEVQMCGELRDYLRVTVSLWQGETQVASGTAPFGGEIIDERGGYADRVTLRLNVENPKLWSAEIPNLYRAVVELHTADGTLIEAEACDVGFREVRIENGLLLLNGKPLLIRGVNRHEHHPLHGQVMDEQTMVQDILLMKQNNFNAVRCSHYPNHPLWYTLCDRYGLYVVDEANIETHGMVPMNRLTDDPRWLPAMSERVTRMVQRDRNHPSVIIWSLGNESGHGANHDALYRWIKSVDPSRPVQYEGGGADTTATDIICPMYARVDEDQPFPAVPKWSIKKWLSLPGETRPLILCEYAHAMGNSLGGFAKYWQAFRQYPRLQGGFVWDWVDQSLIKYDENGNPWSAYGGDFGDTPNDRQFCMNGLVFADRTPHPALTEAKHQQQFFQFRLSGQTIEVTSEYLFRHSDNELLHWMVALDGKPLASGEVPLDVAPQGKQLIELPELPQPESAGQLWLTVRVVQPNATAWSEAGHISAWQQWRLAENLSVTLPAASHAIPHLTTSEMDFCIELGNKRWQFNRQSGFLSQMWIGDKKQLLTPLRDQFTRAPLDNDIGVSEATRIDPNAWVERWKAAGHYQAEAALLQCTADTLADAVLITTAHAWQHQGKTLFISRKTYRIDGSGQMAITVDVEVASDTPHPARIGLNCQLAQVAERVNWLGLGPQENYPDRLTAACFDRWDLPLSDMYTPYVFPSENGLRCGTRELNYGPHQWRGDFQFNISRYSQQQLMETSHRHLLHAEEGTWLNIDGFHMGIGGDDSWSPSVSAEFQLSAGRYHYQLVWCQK

T3 sequence (P63165 whole entry): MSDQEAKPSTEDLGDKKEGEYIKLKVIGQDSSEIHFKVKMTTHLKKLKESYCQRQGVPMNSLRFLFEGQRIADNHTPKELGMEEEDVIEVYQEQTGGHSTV
Chain of DNA (cytosine-5)-methyltransferase 1 (P26358 whole entry): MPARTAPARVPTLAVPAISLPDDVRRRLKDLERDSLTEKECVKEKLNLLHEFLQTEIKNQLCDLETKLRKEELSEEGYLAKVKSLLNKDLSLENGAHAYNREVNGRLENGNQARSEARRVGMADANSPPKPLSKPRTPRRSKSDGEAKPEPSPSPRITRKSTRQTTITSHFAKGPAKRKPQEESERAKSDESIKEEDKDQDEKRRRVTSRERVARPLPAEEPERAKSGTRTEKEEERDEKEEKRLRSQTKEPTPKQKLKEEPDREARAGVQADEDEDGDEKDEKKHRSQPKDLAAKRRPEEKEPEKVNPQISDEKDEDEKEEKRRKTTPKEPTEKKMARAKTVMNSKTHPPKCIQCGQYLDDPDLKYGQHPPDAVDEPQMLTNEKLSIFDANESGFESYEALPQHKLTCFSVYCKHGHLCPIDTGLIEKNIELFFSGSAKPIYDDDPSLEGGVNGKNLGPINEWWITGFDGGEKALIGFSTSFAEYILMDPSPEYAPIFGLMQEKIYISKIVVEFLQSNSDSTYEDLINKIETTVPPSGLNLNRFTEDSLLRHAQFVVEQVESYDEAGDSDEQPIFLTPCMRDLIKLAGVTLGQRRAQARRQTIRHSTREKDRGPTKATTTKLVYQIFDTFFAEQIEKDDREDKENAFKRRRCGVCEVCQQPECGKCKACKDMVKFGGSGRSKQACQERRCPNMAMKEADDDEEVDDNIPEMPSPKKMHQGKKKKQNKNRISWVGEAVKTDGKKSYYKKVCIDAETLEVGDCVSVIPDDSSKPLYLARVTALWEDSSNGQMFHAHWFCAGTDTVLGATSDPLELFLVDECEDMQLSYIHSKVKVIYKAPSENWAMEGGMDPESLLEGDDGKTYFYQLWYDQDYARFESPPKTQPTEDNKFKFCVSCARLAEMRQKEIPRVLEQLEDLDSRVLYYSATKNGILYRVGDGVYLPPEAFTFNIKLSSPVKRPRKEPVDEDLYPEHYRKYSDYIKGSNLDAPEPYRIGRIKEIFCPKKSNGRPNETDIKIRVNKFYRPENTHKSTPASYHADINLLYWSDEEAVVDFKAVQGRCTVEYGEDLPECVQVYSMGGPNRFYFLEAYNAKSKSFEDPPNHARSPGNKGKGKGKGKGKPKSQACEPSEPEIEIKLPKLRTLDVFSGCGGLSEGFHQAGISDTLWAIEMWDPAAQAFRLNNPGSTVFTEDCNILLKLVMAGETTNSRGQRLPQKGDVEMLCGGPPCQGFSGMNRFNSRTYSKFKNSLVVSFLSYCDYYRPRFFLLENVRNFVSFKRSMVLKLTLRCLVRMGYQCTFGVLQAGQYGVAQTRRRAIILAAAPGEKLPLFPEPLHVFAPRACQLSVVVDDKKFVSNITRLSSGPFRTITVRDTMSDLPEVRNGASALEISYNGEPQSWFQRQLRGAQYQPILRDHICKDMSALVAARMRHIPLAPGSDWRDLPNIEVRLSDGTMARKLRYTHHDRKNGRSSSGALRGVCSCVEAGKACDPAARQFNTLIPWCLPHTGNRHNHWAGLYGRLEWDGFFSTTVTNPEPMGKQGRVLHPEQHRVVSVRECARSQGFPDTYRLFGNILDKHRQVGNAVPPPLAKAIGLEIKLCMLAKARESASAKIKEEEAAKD
Chain of DNA dC->dU-editing enzyme APOBEC-3G (Q9HC16 whole entry): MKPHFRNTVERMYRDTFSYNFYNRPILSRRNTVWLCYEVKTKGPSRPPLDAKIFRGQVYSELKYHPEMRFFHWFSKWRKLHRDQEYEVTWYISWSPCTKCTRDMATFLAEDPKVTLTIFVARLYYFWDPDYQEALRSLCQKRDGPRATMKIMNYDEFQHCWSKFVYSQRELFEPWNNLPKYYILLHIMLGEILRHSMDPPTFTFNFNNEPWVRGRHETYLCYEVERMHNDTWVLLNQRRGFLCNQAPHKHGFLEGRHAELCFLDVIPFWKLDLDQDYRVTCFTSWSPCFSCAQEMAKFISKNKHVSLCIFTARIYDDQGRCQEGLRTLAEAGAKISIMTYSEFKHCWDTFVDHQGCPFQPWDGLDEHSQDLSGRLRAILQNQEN
Chain of DNA dC->dU-editing enzyme APOBEC-3A (P31941 whole entry): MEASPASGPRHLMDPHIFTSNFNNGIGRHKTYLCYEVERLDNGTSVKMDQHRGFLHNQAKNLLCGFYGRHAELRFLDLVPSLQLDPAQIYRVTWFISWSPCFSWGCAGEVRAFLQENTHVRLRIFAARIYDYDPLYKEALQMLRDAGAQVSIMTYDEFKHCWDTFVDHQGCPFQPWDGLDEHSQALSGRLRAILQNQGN
Chain of Type-1 angiotensin II receptor (P30556 whole entry): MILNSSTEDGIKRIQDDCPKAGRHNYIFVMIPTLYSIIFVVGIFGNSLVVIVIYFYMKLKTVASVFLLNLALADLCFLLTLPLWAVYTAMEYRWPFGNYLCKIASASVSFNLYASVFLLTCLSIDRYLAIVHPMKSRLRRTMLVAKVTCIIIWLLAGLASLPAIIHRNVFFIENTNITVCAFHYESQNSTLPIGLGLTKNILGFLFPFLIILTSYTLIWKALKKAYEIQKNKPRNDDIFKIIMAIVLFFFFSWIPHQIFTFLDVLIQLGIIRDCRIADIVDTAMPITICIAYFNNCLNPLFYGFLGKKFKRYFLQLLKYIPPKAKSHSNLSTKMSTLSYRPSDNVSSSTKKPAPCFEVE

SMILES: C=C(C)C(=O)Nc1cccc(C2=NOC3(C2)C[C@@H](C(N)=O)N(C(=O)/C=C/CC)C3)c1 (stereo partly specified)
- IC50 [1]: 1.73 µM (active)
- EC50 [2]: 4.43 µM (active)
- IC50 [3]: 6.06 µM (active)
- IC50 [4]: > 100 µM (inactive)
- IC50 [5]: 3.25 µM (active)
- IC50 [6]: 5.96 µM (active)
- IC50 [7]: > 66.6 µM (inactive)

SMILES: CC(C)c1ccc(NC(=O)CCc2ccccc2)cc1
- AC50 [8]: 40.5 µM (active)
- EC50 (cells [9]): > 350 µM (not active)
- EC50 [10]: 7.33 µM (active)
- AC50 [11]: 6.63 µM (active)
- EC50 (cells [12]): > 350 µM (not active)
- EC50 (H4): > 120 µM (inconclusive)
- EC50 [13]: 52.1 µM (active)

SMILES: O=C(CCC(=O)OCC(=O)c1ccc(Cl)cc1Cl)Nc1cccc2cccnc12
- IC50 [14]: > 40 µM (not active)
- EC50 (Beta-galactosidase): > 40 µM (inactive)
